The values that follow come from US7816522B2, “Triazolone derivatives” (Eisai Co., Ltd., priority 2006, dated 2010).

Where a name gives a salt, the structure may show the parent alone.

The target in this assay is T1, human clotting factor VIIa (Homo sapiens, UniProt P08709).
T1 construct: a human clotting factor VIIa (hereinafter, “Factor VIIa”) purified sample; purchased Enzyme Research Laboratories HFVIIa
T1 sequence (P08709 213-466 limits assumed): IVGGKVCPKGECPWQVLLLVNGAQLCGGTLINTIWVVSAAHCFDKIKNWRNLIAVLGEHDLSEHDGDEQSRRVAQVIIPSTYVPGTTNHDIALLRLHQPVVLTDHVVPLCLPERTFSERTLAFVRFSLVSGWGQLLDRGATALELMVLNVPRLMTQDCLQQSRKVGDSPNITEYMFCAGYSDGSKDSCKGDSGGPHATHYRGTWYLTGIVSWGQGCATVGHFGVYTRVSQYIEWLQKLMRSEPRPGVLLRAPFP
T1 sequence (P08709 61-212 limits assumed): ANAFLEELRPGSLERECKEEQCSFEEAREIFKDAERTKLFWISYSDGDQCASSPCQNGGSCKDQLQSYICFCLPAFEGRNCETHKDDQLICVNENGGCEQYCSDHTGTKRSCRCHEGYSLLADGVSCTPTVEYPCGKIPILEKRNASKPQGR
T1 sequence (P13726 33-295 partner): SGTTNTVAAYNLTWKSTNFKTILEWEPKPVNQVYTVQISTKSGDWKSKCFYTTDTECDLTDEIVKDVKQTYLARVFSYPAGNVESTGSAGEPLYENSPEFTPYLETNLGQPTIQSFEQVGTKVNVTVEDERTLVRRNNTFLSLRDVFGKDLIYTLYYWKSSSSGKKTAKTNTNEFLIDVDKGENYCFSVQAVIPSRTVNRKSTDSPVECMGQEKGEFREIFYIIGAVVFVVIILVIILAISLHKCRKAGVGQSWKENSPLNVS
The experiment in a line: Inhibitory activity against clotting factor VIIa (chromogenic substrate Spectrozyme FVIIa, TF/Factor VIIa enzyme solution). It counts as biochemical. As to conditions: human Factor VIIa 5 nmol/L with human TF 10 nmol/L, room temperature 40 minutes, 405 nm. The procedure: [Inhibitory Activity Against Clotting Factor VIIa]
Dimethylsulfoxide (DMSO) solutions were prepared with compounds of the invention at concentration of 10 mmol/L (10 mmol/L compound solutions).
One packet of tris-hydroxymethylaminomethane-preset (hereinafter referred to as “Tris preset”) (Product of Sigma Corp., Catalog No. T8293), 8.8 g of sodium chloride (NaCl) and 1 g of bovine serum albumin (hereinafter abbreviated as “BSA”) were dissolved in 1 L of water to prepare a Tris-BSA buffer (100 mmol/L Tris, 0.15 mol/L NaCl, 0.1% BSA, pH 7.4).
This Tris-BSA buffer (180 μL) was added to the aforementioned 10 mmol/L compound solution (20 μL). A 10-fold dilution series was prepared for this mixture using the aforementioned Tris-BSA buffer, and solutions with the compound at concentrations of 1.0 mmol/L, 100, 10, 1, 0.1, 0.01 and 0.001 μmol/L were prepared (1.0 mmol-0.001 μmol/L compound solutions). As a control, a solution was prepared by 10-fold dilution of DMSO with the Tris-BSA buffer (hereinafter referred to as “control 10% solution”).
After dissolving one packet of Tris preset, NaCl (8.8 g) and BSA (1 g) in water (about 900 mL), there were added 1 mol/L aqueous calcium chloride (CaCl2) (15 mL) and 1 mg/mL aqueous cephalin (30 mL), and the total volume was brought to 1 L by adding water. To this solution there was added a human tissue factor (hereinafter, “TF”) sample (product of Calbiochem, Catalog No. 612151) (450 μg) to a TF sample concentration of 10 nmol/L, and then a human clotting factor VIIa (hereinafter, “Factor VIIa”) purified sample (product of Enzyme Research Laboratories, Catalog No. HFVIIa) (250 μg) was added to a Factor VIIa purified sample concentration of 5 nmol/L, to prepare an enzyme solution (100 mmol/L Tris-HCl, 0.15 mol/L NaCl, 15 mmol/L CaCl2, 30 μg/mL cephalin, 1 mg/mL BSA, 10 nmol/L TF, 5 nmol/L Factor VIIa).
To 110 μL of this enzyme solution there was added 15 μL of each of the 1.0 mmol-0.001 μmol/L compound solutions, and then 25 μL of a 1.0 mmol/L synthetic chromogenic substrate solution (Spectrozyme FVIIa, product of American Diagnostica, Catalog No. 217L) was added and the mixture was allowed to stand at room temperature for 40 minutes. Next, the amount of 4-nitroanilide released into the solution was quantitated by spectrophotometry (405 nm).
A control measurement was conducted in the same manner, using the control 10% solution instead of the compound solution.
This measurement yielded the enzyme reaction inhibition in the presence of 100 μmol/L to 0.1 nmol/L of each compound of the invention.
The enzyme reaction inhibition at each compound concentration was subjected to non-linear regression analysis, and the IC50 value for inhibitory activity of each compound against clotting factor VIIa was calculated.
A word on the IC50: it is the concentration that inhibits the measured activity by half. Higher therefore signals a need for much substance. For the compound `COc1cc(CO)cc(C(Nc2ccc(C(=N)N)cc2)c2nn(-c3ncccn3)c(=O)[nH]2)c1` (racemic) [Example 12, (R) and (S)-4-{[(3-hydroxymethyl-5-methoxyphenyl)-(5-oxo-1-pyrimidin-2-yl-4,5-dihydro-1H-[1,2,4]triazol-3-yl)methyl]amino}benzamidine trifluoroacetate], half-maximal inhibition (IC50) required 33.8 nM.

In the case of `COc1cc(C(Nc2ccc(C(=N)N)cc2)c2nn(-c3ncsc3C(N)=O)c(=O)[nH]2)c(F)c2c1OCOC2` (racemic) [Example 164, (R) and (S)-4-{3-[(4-carbamimidoylphenylamino)-(5-fluoro-8-methoxy-4H-benzo[1,3]dioxin-6-yl)methyl]-5-oxo-4,5-dihydro-[1,2,4]triazol-1-yl}thiazole-5-carboxylic acid amide], the half-maximal inhibitory concentration (IC50) was 24.5 nM.

For `COCCOc1c(OC)cc(C(Nc2ccc(C(=N)N)cc2)c2nn(-c3ccccc3OC)c(=O)[nH]2)cc1OC` (stereo not drawn) [Example 87, 4-({[3,5-dimethoxy-4-(2-methoxyethoxy)phenyl]-[1-(2-methoxyphenyl)-5-oxo-4,5-dihydro-1H-[1,2,4]triazol-3-yl]methyl}amino)benzamidine acetate], inhibition was half-maximal at 4.2 nM (IC50).

As for `COc1cc(OC)c(F)c(C(Nc2ccc(C(=N)N)cc2)c2nn(-c3cccc[n+]3[O-])c(=O)[nH]2)c1` (single isomer, unassigned) [Example 2], the IC50 was found to be 9.4 nM.

Consider `COc1ccc(C(Nc2ccc(C(=N)N)cc2)c2nn(-c3ccccc3C(=O)O)c(=O)[nH]2)cc1OC` (racemic) [Example 36, (R) and (S)-2-{3-[(4-carbamimidoylphenylamino)-(3,4-dimethoxyphenyl)methyl]-5-oxo-4,5-dihydro-[1,2,4]triazol-1-yl}benzoic acid acetate], for which the IC50 was determined as 3.8 nM. This IC50 lies about 2.5-fold lower than the previous one.

Compound `CCOc1cc(OCC)cc(C(Nc2ccc(C(=N)N)cc2)c2nn(-c3ncccn3)c(=O)[nH]2)c1` (racemic) [Example 79, (R) and (S)-4-{[(3,5-diethoxyphenyl)-(5-oxo-1-pyrimidin-2-yl-4,5-dihydro-1H-[1,2,4]triazol-3-yl)methyl]amino}benzamidine trifluoroacetate] showed an IC50 of 7.6 nM.

In turn, `CCOc1cc(OC)c(F)c(C(Nc2ccc(C(=N)N)cc2)c2nn(-c3cccnn3)c(=O)[nH]2)c1` (racemic) [Example 71, (R) and (S)-4-{[(5-ethoxy-2-fluoro-3-methoxyphenyl)-(5-oxo-1-pyridazin-3-yl-4,5-dihydro-1H-[1,2,4]triazol-3-yl)methyl]amino}benzamidine acetate] registered an IC50 of 7.7 nM.

For the compound `COc1cc(C(Nc2ccc(C(=N)N)cc2)c2nn(-c3cccnn3)c(=O)[nH]2)cc(CC#N)c1F` (racemic) [Example 146, (R) and (S)-4-{[(3-cyanomethyl-4-fluoro-5-methoxyphenyl)-(5-oxo-1-pyridazin-3-yl-4,5-dihydro-1H-[1,2,4]triazol-3-yl)methyl]amino}benzamidine acetate], the half-inhibitory concentration (IC50) is 8.1 nM.

The compound `CCc1cc(OC(C)CN(C)C)c(F)c(C(Nc2ccc(C(=N)N)cc2)c2nn(-c3ccccn3)c(=O)[nH]2)c1` (stereo not drawn) [Example 141, 4-({[3-(2-dimethylamino-1-methylethoxy)-5-ethyl-2-fluorophenyl]-(5-oxo-1-pyridin-2-yl-4,5-dihydro-1H-[1,2,4]triazol-3-yl)methyl}amino)benzamidine bistrifluoroacetate] returned an IC50 of 5 nM.

Compound `CCc1cc(OCCF)cc(C(Nc2ccc(C(=N)N)cc2)c2nn(-c3ncccn3)c(=O)[nH]2)c1` (racemic) [Example 74, (R) and (S)-4-({[3-ethyl-5-(2-fluoroethoxy)phenyl]-(5-oxo-1-pyrimidin-2-yl-4,5-dihydro-1H-[1,2,4]triazol-3-yl)methyl}amino)benzamidine acetate] showed an IC50 of 3.3 nM. Compared with the last compound, the IC50 is about 1.5-fold lower.

As for `CCOc1cc(C(Nc2ccc(C(=N)N)cc2)c2nn(-c3ncccc3N)c(=O)[nH]2)ccc1OC` (racemic) [Example 35, (R) and (S)-4-({[1-(3-aminopyridin-2-yl)-5-oxo-4,5-dihydro-1H-[1,2,4]triazol-3-yl]-(3-ethoxy-4-methoxyphenyl)methyl}amino)benzamidine acetate], the half-maximal inhibitory concentration (IC50) amounted to 6.8 nM.

`COc1cc(C(Nc2ccc(C(=N)N)cc2)c2nn(-c3ncccn3)c(=O)[nH]2)c(F)c2c1OCCC2` (racemic) [Example 33, (R) and (S)-4-{[(5-fluoro-8-methoxychroman-6-yl)-(5-oxo-1-pyrimidin-2-yl-4,5-dihydro-1H-[1,2,4]triazol-3-yl)methyl]amino}benzamidine acetate] came in with an IC50 of 6.7 nM.

In the case of `CCc1cc(OCCOC)cc(C(Nc2ccc(C(=N)N)cc2)c2nn(-c3ncccn3)c(=O)[nH]2)c1` (racemic) [Example 76, (R) and (S)-4-({[3-ethyl-5-(2-methoxyethoxy)phenyl]-(5-oxo-1-pyrimidin-2-yl-4,5-dihydro-1H-[1,2,4]triazol-3-yl)methyl}amino)benzamidine trifluoroacetate], the 50% inhibitory concentration (IC50) was 5.2 nM.

For the compound `COc1cc(OCCCO)c(F)c(C(Nc2ccc(C(=N)N)cc2)c2nn(-c3ncccn3)c(=O)[nH]2)c1` (racemic) [Example 229, (R) and (S)-4-{[[2-Fluoro-3-(3-hydroxypropoxy)-5-methoxyphenyl]-(5-oxo-1-pyrimidin-2-yl-4,5-dihydro-1H-[1,2,4]triazol-3-yl)methyl]amino}benzamidine acetate], inhibition was half-maximal at 5.1 nM (IC50).

The compound `COc1cc(C(Nc2ccc(C(=N)N)cc2)c2nn(-c3ccsc3C(=O)O)c(=O)[nH]2)cnc1OC` (racemic) [Example 169, 3-{3-[(R) and (S)-(4-carbamimidoylphenylamino)-(5,6-dimethoxypyridin-3-yl)methyl]-5-oxo-4,5-dihydro-[1,2,4]triazol-1-yl}thiophene-2-carboxylic acid acetate] had a 50% inhibitory concentration (IC50) of 2.8 nM.

In turn, `COc1cc(OCC(=O)N(C)C)c(F)c(C(Nc2ccc(C(=N)N)cc2)c2nn(-c3ncccn3)c(=O)[nH]2)c1` (racemic) [Example 15, (R) and (S)-2-{3-[(4-carbamimidoylphenylamino)-(5-oxo-1-pyrimidin-2-yl-4,5-dihydro-1H-[1,2,4]triazol-3-yl)methyl]-2-fluoro-5-methoxyphenoxy}-N,N-dimethylacetamide acetate] had a concentration for half-maximal inhibition (IC50) of 13.4 nM.

For the compound `COc1cc(OCCF)c(F)c(C(Nc2ccc(C(=N)N)cc2)c2nn(-c3cccnc3N)c(=O)[nH]2)c1` (racemic) [Example 50, (R) and (S)-4-({[1-(2-aminopyridin-3-yl)-5-oxo-4,5-dihydro-1H-[1,2,4]triazol-3-yl]-[2-fluoro-3-(2-fluoroethoxy)-5-methoxyphenyl]methyl}amino)benzamidine diacetate], the half-maximal inhibitory concentration (IC50) was 3.2 nM.

`COc1cc(C(Nc2ccc(C(=N)N)cc2)c2nn(-c3cccnn3)c(=O)[nH]2)ccc1OCC#N` (racemic) [Example 144, (R) and (S)-4-{[(4-cyanomethoxy-3-methoxyphenyl)-(5-oxo-1-pyridazin-3-yl-4,5-dihydro-1H-[1,2,4]triazol-3-yl)methyl]amino}benzamidine acetate] yielded an IC50 of 7.7 nM.

`COc1cc(C(Nc2ccc(C(=N)N)cc2)c2nn(-c3ncccc3F)c(=O)[nH]2)cc(OC)n1` (racemic) [Example 56, (R) and (S)-4-{[(2,6-dimethoxypyridin-4-yl)-[1-(3-fluoropyridin-2-yl)-5-oxo-4,5-dihydro-1H-[1,2,4]triazol-3-yl)methyl]amino}benzamidine acetate] registered an IC50 of 11.2 nM.

On to `COCCc1cc(C(Nc2ccc(C(=N)N)cc2)c2nn(-c3ncccn3)c(=O)[nH]2)cc(OC)c1OC` (racemic) [Example 129, (R) and (S)-4-({[3,4-dimethoxy-5-(2-methoxyethyl)-phenyl]-(5-oxo-1-pyrimidin-2-yl-4,5-dihydro-1H-[1,2,4]triazol-3-yl)methyl}amino)benzamidine acetate], for which the IC50 was 7.5 nM.

The compound `COc1cc(F)c(C(Nc2ccc(C(=N)N)cc2)c2nn(-c3ncccc3Br)c(=O)[nH]2)cc1OC` (stereo not drawn) [Example 134, 4-({[1-(3-bromopyridin-2-yl)-5-oxo-4,5-dihydro-1H-[1,2,4]triazol-3-yl]-(2-fluoro-4,5-dimethoxyphenyl)methyl}amino)benzamidine acetate] showed a half-inhibitory concentration (IC50) of 11.7 nM.
